“And” between values parts separate entries of the source, which are not always exact repeats. Equal values may be shown once.
How the values were obtained:
[1] = Fluorescence quantum yield, dye alone; assay type: physicochemical; conditions: dye alone, without dsDNACT; 10 mM Tris pH 7.6 and 50 mM KCI, 25°C; reference dye Alexa Fluor 647
Procedure: Fluorescence intensity values for the quantum yields were determined on an ISS PC1 spectrofluorometer with an ISS 11650 lamp connected to an ISS Simpson model 109 and an ISS 80011 photomulitplier connected to a MGW Lauda K2R D and an Amherst Scientific Corp. 7600F for cooling. A VWR Refrigerated Circ 1160S was connected for the cooling of the cuvette chamber. It was measured in a 1400 µL fluorescence cuvette of HellmaAnalytics (104F-QS) at 25°C using the following settings: increment: 2.0 nm; integration time: 1.0 s; excitation slit width: 0.25 mm; emission slit width: 0.5 mm; excitation wavelength 590 nm. The emission spectra were recorded from 610 to 750 nm. From all spectra the corresponding background signal was substracted. Absorbance values were measured on a Jasco V-650 UV-Vis Spectrophotometer equipped with a Jasco PAC-743 temperature controlled cell holder and a Julabo F250 cooling system. UV-Vis titration measurements were performed in a 1400 µL quarz cuvette with a pathlength of 1 cm at 25°C using the following settings: increment: 1.0 nm; bandwidth: 1.0 nm; scanning speed: 1000 nm/min; scanning mode: continuous. From all values, the corresponding background signal was subtracted. The values for the reference compounds were measured in duplicates, the ones for 6-TramTO-3 with and without dsDNACT in triplicates. The quantum yields of 6-TramTO-3 with (30 eq.) and without dsDNACT were determined in 10 mM Tris pH 7.6 and 50 mM KCI. All measurement were following the procedure of Horiba and using the equation E1: ΦX = ΦST ((GradX)/(GradST)) ((((ηX))^2)/(((ηST))^2)) [formula] where Φ = fluorescence quantum yield, η = refractive index of the used solvent, Grad = gradient from the plot of integrated fluorescence intensity vs. absorbance and the subscripts ST and X denote standard and tested sample. […]
(§1) Table 3: Determined slopes and corresponding quantum yields for the two reference compounds Alexa Flour® 647 and Atto 655 and for 6-TramTO-3 with and without dsDNACT.

dsDNACT = experiment: Fluorescence quantum yield with dsDNACT; assay type: physicochemical, calf; conditions: with dsDNACT (30 eq.); 10 mM Tris pH 7.6 and 50 mM KCI, 25°C; reference dye Alexa Fluor 647
Procedure: Fluorescence intensity values for the quantum yields were determined on an ISS PC1 spectrofluorometer with an ISS 11650 lamp connected to an ISS Simpson model 109 and an ISS 80011 photomulitplier connected to a MGW Lauda K2R D and an Amherst Scientific Corp. 7600F for cooling. A VWR Refrigerated Circ 1160S was connected for the cooling of the cuvette chamber. It was measured in a 1400 µL fluorescence cuvette of HellmaAnalytics (104F-QS) at 25°C using the following settings: increment: 2.0 nm; integration time: 1.0 s; excitation slit width: 0.25 mm; emission slit width: 0.5 mm; excitation wavelength 590 nm. The emission spectra were recorded from 610 to 750 nm. From all spectra the corresponding background signal was substracted. Absorbance values were measured on a Jasco V-650 UV-Vis Spectrophotometer equipped with a Jasco PAC-743 temperature controlled cell holder and a Julabo F250 cooling system. […] The values for the reference compounds were measured in duplicates, the ones for 6-TramTO-3 with and without dsDNACT in triplicates. The quantum yields of 6-TramTO-3 with (30 eq.) and without dsDNACT were determined in 10 mM Tris pH 7.6 and 50 mM KCI. […]
as §1

[2] = Molar extinction coefficient determination; assay type: physicochemical; conditions: in milli-Q water; absorbance maximum at 625 nm
Procedure: The concentration determination and measurement of full UV-Vis spectra were performed on a Tecan 20M at room temperature. The measurements were performed in a 1400 µL quarz cuvette with a pathlength of 1 cm in a volume of 1 mL.
For the accurate determination of our compounds 6-TramTO-3 the extinction coefficient was calculated. A specific amount (< 2.00 mg) of the compound was weighted on a Mettler Toledo XP6 and dissolved in a known amount of milli-Q water. Increasing amounts of such stock solution were added into a 1 mL cuvette filled with 1 ml of milli-Q water. The corresponding absorbance of each addition was measured on a Tecan Spark 20M at the maximum at 625 nm and without exceeding 10% of the initial volume. In all the cases the absorbance was between 0.1 and 1 AU. to be in concordance with Lambert-Beer law (equation E2). A = ε l c [formula]
In this equation (E2): A = absorbance of the solution; I = length of the cuvette; c = concentration; ε = molar extinction coefficient.
The lineal regression of the obtained absorbance measurements versus the concentrations of 6-TramTO-3 allowed us to obtain the molar extinction coefficient. These measurements were repeated three times independently i.e. from three different stock solutions. The mean extinction coefficient and the standard deviation of 6-TramTO-3 at a wavelength of 625 nm in milli-Q water was 59403 ±646 M^-1cm^-1.
The mean extinction coefficient and the standard deviation of 6-NH2TO-3 and 6-AzTO-3 were determined following the above described procedure. The extinction coefficient of 6-NH2TO-3 was determined in milli-Q water, whereas the extinction coefficient of 6-AzTO-3 was determined in DMSO due to its low aqueous solubility. […] For the spectrum of 6-AzTO-3 1% of DMSO was added for a better solubility. Fig. 20 and Fig. 21 show the linear regressions from the three independent measurements. Table 4 summarized the molar extinction coefficient obtained. Table 4: Determined mean extinction coefficients and standard deviations of 6-AzTO-3 in DMSO and 6-TramTO-3 and 6-NH2TO-3 in milli-Q water.

[3] = tested on: primary human macrophages; experiment: Uptake of 6-TramTO-3-labeled bacteria by macrophages (co-culture, FACS); assay type: cell-based; conditions: multiplicity of infection of 20
Procedure: For primary human macrophage cultures buffy coats from blood donations were loaded onto Lymphoprep™ gradient medium (Fresenius Kabi) followed by centrifugation. The peripheral blood mononuclear cell band was isolated from the gradient and monocytes were enriched using CD14 MACS beads (Miltenyi) according to the manufacturer's instructions. To differentiate monocytes into macrophages cells were cultured in 6-well plates (800.000 cells/mL) in 2 mL X-Vivo 15 medium (Lonza) supplemented with 5 % fetal bovine serum (Biochrom) and 15 ng/mL recombinant human GM-CSF (Preprotech). On day 7 macrophages were considered terminally differentiated and treated with stained bacteria. To this end bacteria stained as described above were sampled at an OD600 nm = 2.0 and washed five times with phosphate buffered saline (PBS). After the last wash bacteria were brought to an OD600 nm of 2.0 and 16 µL, equivalent to 16.000.000 bacteria were added to each well to achieve a multiplicity of infection of 20. Culture plates were then centrifuged for 10 min at 250 G and 37°C to establish physical contact between macrophages and bacteria. Subsequently, culture plates were transferred back into a 37°C incubator with CO2 atmosphere for the remainder of the stimulation period.
Bacteria and macrophages were washed with PBS prior to flow cytometry and analysed using a Guava easyCyte flow cytometer (Millipore). FCS3.0 files were analysed using Flowing Software (http://flowingsoftware.btk.fi/). Cells were first gated in the forward- / side-scatter plot to exclude debries, followed by quadrant gating in plots using the fluorescence channels as shown above. For discrimination of live/dead cell discrimination cells in PBS were supplemented with 0.4 µL/mL propidium-iodide (5 mg/ml solution) followed by 5 min incubation on ice. Propidium iodide signal was recorded in the yellow channel.

CC[n+]1ccc(/C=C/C=C2\Sc3ccccc3N2CCCCCCn2cc(CN)nn2)c2ccccc21.[I-] [6-TramTO-3, 4-((1E,3Z)-3-(3-(6-(4-(aminomethyl)-1H-1,2,3-triazol-1-yl)hexyl)benzo[d]thiazol-2(3H)-ylidene)prop-1-en-1-yl)-1-ethylquinolin-1-ium iodide]
quantum yield (ΦF) [1]: 0.005 and 0.0052 | quantum yield (ΦF) (dsDNACT): 0.27 | mean extinction coefficient [2]: 59403 ± 646 M⁻¹ cm⁻¹ | red-shift of the macrophages (bacterial uptake) ([3]; macrophages exposed to 6-TramTO-3-labeled E. coli): ~ 26% | macrophages that took up bacteria (red-shifted) ([3]; macrophages exposed to 6-TramTO-3-labeled antibiotic sensitive Klebsiella strain): ~ 0.2% | macrophages that took up bacteria (red-shifted) ([3]; macrophages exposed to 6-TramTO-3-labeled antibiotic-resistant Klebsiella strain): ~ 4%

From patent EP3572468B1, “CYANINE DYES AND THEIR USAGE FOR IN VIVO STAINING OF MICROORGANISMS” (PHILIPPS-UNIVERSITÄT MARBURG, priority 2018, dated 2019)
